Source: the NIST ThermoML archive (doi:10.1016/j.jct.2015.07.029)

Assay: mn = molality of the nth substance listed, in mol/kg
Conditions: 101.3 kPa, Liquid, Alternating current cell with electrodes

O=C(O)c1ccc(O)c(O)c1 [3,4-dihydroxybenzoic acid] + O
electrical conductivity [S/m]
Conditions	m1 = 0.001	m1 = 0.002	m1 = 0.004	m1 = 0.006	m1 = 0.008	m1 = 0.01
288.15 K	0.0048	0.007	0.0102	0.0126	0.0146	0.0164
291.15 K	0.0051	0.0074	0.0107	0.0132	0.0154	0.0173
294.15 K	0.0054	0.0078	0.0113	0.014	0.0162	0.0182
298.15 K	0.0058	0.0084	0.0121	0.015	0.0174	0.0196
